US12162840B2, “Herbicidal compositions” (SYNGENTA PARTICIPATIONS AG, priority 2018, dated 2024)

Legend:
Assay in all cases: B1 Post-emergence efficacy Test 1
Type in all cases: in vivo
Details in all cases: post-emergence application, 1000 g/ha, evaluated after 13 days
[1] = system: Echinochloa crus-galli (ECHCG)
Protocol: (§1) Seeds of a variety of test species are sown in standard soil in pots:—Solanum nigrum (SOLNI), Amaranthus retoflexus (AMARE), Setaria faberi (SETFA), Alopecurus myosuroides (ALOMY), Echinochloa crus-galli (ECHCG), Ipomoea hederacea (IPOHE), Lolium perenne (LOLPE). After 8 days cultivation (post-emergence) under controlled conditions in a glasshouse (at 24/16° C., day/night; 14 hours light; 65% humidity), the plants are sprayed with an aqueous spray solution derived from the formulation of the technical active ingredient in acetone/water (50:50) solution containing 0.5% Tween 20 (polyoxyethylene sorbitan monolaurate, CAS RN 9005-64-5). Compounds are applied at 1000 g/ha. The test plants are then grown in a glasshouse under controlled conditions in a glasshouse (at 24/16° C., day/night; 14 hours light; 65% humidity) and watered twice daily. After 13 days, the test is evaluated for the percentage damage caused to the plant. The biological activities are assessed on a five point scale (5=80-100%; 4=60-79%; 3=40-59%; 2=20-39%; 1=0-19%). A blank value in the table is indicative that the compound was not tested on that species.

[2] = system: Amaranthus retoflexus (AMARE)
Protocol: as §1

[3] = system: Ipomoea hederacea (IPOHE)
Protocol: as §1

Setaria faberi (SETFA) = system: Setaria faberi (SETFA)
Protocol: as §1

Solanum nigrum (SOLNI) = system: Solanum nigrum (SOLNI)
Protocol: as §1

Lolium perenne (LOLPE) = system: Lolium perenne (LOLPE)
Protocol: as §1

SMILES | percentage damage caused to the plant, five point scale, ECHCG [1] | percentage damage caused to the plant, five point scale, AMARE [2] | percentage damage caused to the plant, five point scale, IPOHE [3] | percentage damage caused to the plant, five point scale, SETFA (Setaria faberi (SETFA)) | percentage damage caused to the plant, five point scale, SOLNI (Solanum nigrum (SOLNI)) | percentage damage caused to the plant, five point scale, LOLPE (Lolium perenne (LOLPE))
Cc1nn(C)c(=O)c(-c2c(F)ccc(Cl)c2CCc2cccnc2)c1O [Compound 1.054] | 5 (5=80-100%) | 5 (5=80-100%) | 5 (5=80-100%) | 5 (5=80-100%) | 5 (5=80-100%) | 5 (5=80-100%)
Cc1nn(C)c(=O)c(-c2c(F)ccc(Cl)c2CCc2ccc(C(F)(F)F)cc2)c1O [Compound 1.018] | 5 (5=80-100%) | 5 (5=80-100%) | 5 (5=80-100%) | 5 (5=80-100%) | 5 (5=80-100%) | 5 (5=80-100%)
Cc1nn(C)c(=O)c(-c2c(F)ccc(Cl)c2CCc2ccc(Cl)cc2)c1O [Compound 1.012] | 5 (5=80-100%) | 5 (5=80-100%) | 5 (5=80-100%) | 5 (5=80-100%) | 5 (5=80-100%) | 5 (5=80-100%)
Cc1nn(C)c(=O)c(-c2c(F)ccc(Cl)c2CCc2ccccc2)c1O [Compound 1.001] | 5 (5=80-100%) | 5 (5=80-100%) | 5 (5=80-100%) | 5 (5=80-100%) | 5 (5=80-100%) | 5 (5=80-100%)
Cc1ccc(CCc2c(Cl)ccc(F)c2-c2c(OC(=O)C(C)C)c(C)nn(C)c2=O)cc1 [Compound 1.149] | 5 (5=80-100%) | 5 (5=80-100%) | 5 (5=80-100%) | 5 (5=80-100%) | 5 (5=80-100%) | 5 (5=80-100%)
Cc1nn(C)c(=O)c(-c2c(F)ccc(Cl)c2/C=C/c2ccccc2)c1O [Compound 1.002] | 4 (4=60-79%) | 4 (4=60-79%) | 5 (5=80-100%) | 3 (3=40-59%) | 5 (5=80-100%) | 4 (4=60-79%)
Cc1nn(C)c(=O)c(-c2c(F)ccc(Cl)c2CCc2ccc(C(F)(F)F)cc2)c1OC(=O)C(C)C [Compound 1.095] | 5 (5=80-100%) | 5 (5=80-100%) | 5 (5=80-100%) | – | 5 (5=80-100%) | 5 (5=80-100%)
Cc1nn(C)c(=O)c(-c2c(F)ccc(Cl)c2CCc2ccc(F)c(F)c2)c1O [Compound 1.060] | 5 (5=80-100%) | 5 (5=80-100%) | 5 (5=80-100%) | 5 (5=80-100%) | 5 (5=80-100%) | 5 (5=80-100%)
